The molecules below were run against BCL2 (Homo sapiens (Human), UniProt P10415) (assay: Molecular level activity test of anti-apoptotic protein BCL2 (HTRF, binding to Bim peptide)). Details: HTRF, binding of BCL2 to Bim peptide; read-out: BCL2 nM (inhibitory activity, IC50).
Procedure, shortened: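 HTRF readout; His-BCL2 + biotin-BIM peptide + cpd (2% DMSO in compound addition), 1 h; then anti-His + SA-XL665 detection reagents, 4 h RT.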

BCL2, sequence (P10415 whole entry): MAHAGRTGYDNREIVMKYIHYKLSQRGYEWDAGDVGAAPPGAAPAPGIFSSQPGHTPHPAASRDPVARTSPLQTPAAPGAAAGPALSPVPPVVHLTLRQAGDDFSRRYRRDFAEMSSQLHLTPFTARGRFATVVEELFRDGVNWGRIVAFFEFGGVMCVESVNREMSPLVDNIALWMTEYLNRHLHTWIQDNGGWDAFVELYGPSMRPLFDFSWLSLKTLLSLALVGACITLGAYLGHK

| IC50 | SMILES |
| --- | --- |
| < 10 nM | CC(C)c1ccccc1[C@@H]1CN(Cc2ccc(F)c(F)c2)CCN1C1CC2(CCN(c3ccc(C(=O)NS(=O)(=O)c4cc([N+](=O)[O-])c(NC[C@H]5CC[C@](C)(O)CC5)c5c4OCO5)c(Oc4cnc5[nH]ccc5c4)c3)CC2)C1 [compound 176, 2-((1H-pyrrolo[2,3-b]pyrid-5-yl)oxy)-4-(2-((R)-4-(3,4-difluorobenzyl)-2-(2-isopropylphenyl)piperazin-1-yl)-7-azaspiro[3.5]non-7-yl)-N-((7-((((1r, 4r)-4-hydroxy-4-methylcyclohexyl)methyl)amino)-6-nitrobenzo[d][1,3]dioxocyclopent-4-yl)sulfonyl)benzamide] |
| < 10 nM | CC(C)c1ccccc1[C@@H]1CN(Cc2ccc(N(C)C)cc2)CCN1C1CC2(CCN(c3cc(Oc4cnc5[nH]ccc5c4)c(C(=O)NS(=O)(=O)c4ccc(NCC5(F)CCOCC5)c([N+](=O)[O-])c4)cc3F)CC2)C1 [compound 198, (R)-2-((1H-pyrrolo[2,3-b]pyrid-5-yl)oxy)-4-(2-(4-(4-(dimethylamino)benzyl)-2-(2-isopropylphenyl)piperazin-1-yl)-7-azaspiro[3.5]non-7-yl)-5-fluoro-N-((4-(((4-fluorotetrahydro-2H-pyran-4-yl)methyl)amino)-3-nitrophenyl)sulfonyl)benzamide] |
| < 10 nM | COc1cc(CN2CCN(C3CC4(CCN(c5ccc(C(=O)NS(=O)(=O)c6cc([N+](=O)[O-])c(NC[C@H]7CC[C@](C)(O)CC7)c7c6OCO7)c(Oc6cnc7[nH]ccc7c6)c5)CC4)C3)[C@H](c3ccccc3C(C)C)C2)ccc1C1CC1 [compound 179, 2-((1H-pyrrolo[2,3-b]pyrid-5-yl)oxy)-4-(2-((R)-4-(4-cyclopropyl-3-methoxybenzyl)-2-(2-isopropylphenyl)piperazin-1-yl)-7-azaspiro[3.5]non-7-yl)-N-((7-((((1r, 4r)-4-hydroxy-4-methylcyclohexyl)methyl)amino)-6-nitrobenzo[d][1,3]dioxocyclopent-4-yl)sulfonyl)benzamide] |
| < 10 nM | CC(C)c1ccccc1[C@@H]1CN(Cc2ccc(F)c(F)c2)CCN1C1CC2(CCN(c3ccc(C(=O)NS(=O)(=O)c4cc([N+](=O)[O-])c(NCC5(F)CCOCC5)c5c4OCO5)c(Oc4cnc5[nH]ccc5c4)c3)CC2)C1 [compound 168, (R)-2-((1H-pyrrolo[2,3-b]pyrid-5-yl)oxy)-4-(2-(4-(3,4-difluorobenzyl)-2-(2-isopropylphenyl)piperazin-1-yl)-7-azaspiro[3.5]non-7-yl)-N-((7-(((4-fluorotetrahydro-2H-pyran-4-yl)methyl)amino)-6-nitrobenzo[d][1,3]dioxocyclopent-4-yl)sulfonyl)benzamide] |
| < 10 nM | COc1ccc(CN2CCN(C3CC4(CCN(c5cc(Oc6cnc7[nH]ccc7c6)c(C(=O)NS(=O)(=O)c6cc([N+](=O)[O-])c(NC[C@H]7CC[C@](C)(O)CC7)c7scnc67)cn5)CC4)C3)[C@H](c3ccccc3C(C)C)C2)cc1 [compound 140, 4-((1H-pyrrolo[2,3-b]pyrid-5-yl)oxy)-N-((7-((((1r, 4r)-4-hydroxy-4-methylcyclohexyl)methyl)amino)-6-nitrobenzo[d]thiazol-4-yl)sulfonyl)-6-(2-((R)-2-(2-isopropylphenyl)-4-(4-methoxybenzyl)piperazin-1-yl)-7-azaspiro[3.5]non-7-yl) nicotinamide] |
| < 10 nM | COc1cc(CN2CCN(C3CC4(CCN(c5cc(Oc6cnc7[nH]ccc7c6)c(C(=O)NS(=O)(=O)c6ccc(NCC7(F)CCOCC7)c([N+](=O)[O-])c6)cc5F)CC4)C3)[C@H](c3ccccc3C(C)C)C2)ccc1C(C)C [compound 194, (R)-2-((1H-pyrrolo[2,3-b]pyrid-5-yl)oxy)-5-fluoro-N-((4-(((4-fluorotetrahydro-2H-pyran-4-yl)methyl)amino)-3-nitrophenyl)sulfonyl)-4-(2-(4-(4-isopropyl-3-methoxybenzyl)-2-(2-isopropylphenyl)piperazin-1-yl)-7-azaspiro[3.5]non-7-yl)benzamide] |

More lines, now with the values behind:

| SMILES | IC50 |
| --- | --- |
| COc1ccc(CN2CCN(C3CC4(C3)CN(c3cc(Oc5cnc6[nH]ccc6c5)c(C(=O)NS(=O)(=O)c5ccc(NCC6(F)CCN(C7COC7)CC6)c([N+](=O)[O-])c5)cn3)C4)C(c3ccccc3C(C)C)C2)cc1 (stereo not drawn) [compound 054] | < 10 nM |
| COc1ccc(CN2CCN(C3CC4(CCN(c5cc(Oc6cnc7[nH]ccc7c6)c(C(=O)NS(=O)(=O)c6cc([N+](=O)[O-])c(NCC7(F)CCOCC7)c7[nH]cnc67)cn5)CC4)C3)C(c3ccccc3C(C)C)C2)cc1 (stereo not drawn) [compound 077, 4-((1H-pyrrolo[2,3-b]pyrid-5-yl)oxy)-N-((7-(((4-fluorotetrahydro-2H-pyran-4-yl)methyl)amino)-6-nitro-1H-benzo[d]imidazol-4-yl)sulfonyl)-6-(2-(2-(2-isopropylphenyl)-4-(4-methoxybenzyl)piperazin-1-yl)-7-azaspiro[3.5]non-7-yl) nicotinamide] | < 10 nM |
| CC(C)c1ccccc1C1CN(C2CCOCC2)CCN1C1CC2(C1)CN(c1ccc(C(=O)NS(=O)(=O)c3cc([N+](=O)[O-])c(NCC4(F)CCN(C(C)C)CC4)c4[nH]cnc34)c(Oc3cnc4[nH]ccc4c3)c1)C2 (stereo not drawn) [compound 044, 2-((1H-pyrrolo[2,3-b]pyrid-5-yl)oxy)-N-((7-(((4-fluoro-1-isopropylpiperid-4-yl)methyl)amino)-6-nitro-1H-benzo[d]imidazol-4-yl)sulfonyl)-4-(6-(2-(2-isopropylphenyl)-4-(tetrahydro-2H-pyran-4-yl)piperazin-1-yl)-2-azaspiro[3.3]hept-2-yl)benzamide] | < 10 nM |
| COc1ccc(CN2CCN(C3CC4(CCN(c5cc(Oc6cnc7[nH]ccc7c6)c(C(=O)NS(=O)(=O)c6cc([N+](=O)[O-])c(NC[C@H]7CC[C@](C)(O)CC7)c7[nH]cnc67)cn5)CC4)C3)C(c3ccccc3C(C)C)C2)cc1 (stereo partly drawn) [compound 067, 4-((1H-pyrrolo[2,3-b]pyrid-5-yl)oxy)-N-((7-((((1r,4r)-4-hydroxy-4-methylcyclohexyl)methyl)amino)-6-nitro-1H-benzo[d]imidazol-4-yl)sulfonyl)-6-(2-(2-(2-isopropylphenyl)-4-(4-methoxybenzyl)piperazin-1-yl)-7-azaspiro[3.5]non-7-yl) nicotinamide] | < 10 nM |
| COc1ccc(CN2CCN(C3CC4(CCN(c5cc(Oc6cnc7[nH]ccc7c6)c(C(=O)NS(=O)(=O)c6cc([N+](=O)[O-])c(NCC7(F)CCOCC7)c7oc(C)cc67)cc5F)CC4)C3)[C@H](c3ccccc3C(C)C)C2)cc1 [compound 111, (R)-2-((1H-pyrrolo[2,3-b]pyrid-5-yl)oxy)-5-fluoro-N-((7-(((4-fluorotetrahydro-2H-pyran-4-yl)methyl)amino)-2-methyl-6-nitrobenzofuran-4-yl)sulfonyl)-4-(2-(2-(2-isopropylphenyl)-4-(4-methoxybenzyl)piperazin-1-yl)-7-azaspiro[3.5]non-7-yl)benzamide] | < 10 nM |
| COc1ccc(CN2CCN(C3CC4(CCN(c5cc(Oc6cnc7[nH]ccc7c6)c(C(=O)NS(=O)(=O)c6cc([N+](=O)[O-])c(NCC7(F)CCOCC7)c7scnc67)cc5F)CC4)C3)[C@H](c3ccccc3C(C)C)C2)cn1 [compound 128, (R)-2-((1H-pyrrolo[2,3-b]pyrid-5-yl)oxy)-5-fluoro-N-((7-(((4-fluorotetrahydro-2H-pyran-4-yl)methyl)amino)-6-nitrobenzo[d]thiazol-4-yl)sulfonyl)-4-(2-(2-(2-isopropylphenyl)-4-((6-methoxypyrid-3-yl)methyl)piperazin-1-yl)-7-azaspiro[3.5]non-7-yl)benzamide] | < 10 nM |

Source: patent US20250034135A1, “ANTI-APOPTOTIC PROTEIN BCL-2 INHIBITOR, PHARMACEUTICAL COMPOSITION AND USES THEREOF” (HANGZHOU HEALZEN THERAPEUTICS CO., LTD., priority 2021, published 2025)
